Source: PubChem BioAssay AID179 (DTP/NCI, 2004)
Active and inactive are the calls of the source.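 Rule for the calls: active = compounds giving half or more protection of infected cells from virus-caused growth loss, again on retest; inactive = the rest.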 Where a SMILES comes first, the peptide text is derived from it. The star is where a group is joined. Cbz = O=C(OCc1ccccc1)*

System: CEM cells HIV-1 protection, formazan growth assay
Test: NCI AIDS Antiviral Assay
Conditions: for IC50: measured here: growth of uninfected CEM cells
Procedure, shortened: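 Category rules: moderately active means at least 50% protection on retest, and confirmed active means 100% protection reproducibly. The underlying data came from a formazan growth assay in HIV-1-infected CEM cells.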

Compound	EC50	IC50	outcome
CCOC(=O)C(Cc1cn(C(C)=O)c2ccccc12)P(=O)(OCC)OCC (stereo unspecified)	> 200 µM	> 200 µM	–
O=C(N/C(=C\c1ccc([N+](=O)[O-])cc1)c1nc2ccc(Cl)cc2[nH]1)c1ccccc1	–	–	inactive
O=C1c2sc(-c3ccc(Cl)cc3)cc2-n2cccc21	> 151 µM	> 151 µM	–
Nc1nc2c(c(=O)[nH]1)Cc1nc(N)[nH]c(=O)c1C2	> 24.5 µM	> 24.5 µM	–
CCCCCC[C@@H]1CCC2C(CO)[C@@H](O)CC[C@@H]2C1 (stereo partly specified)	> 37.2 µM	28.2 µM	–
O=C(CCc1ccccc1)ON1C(=S)NC(c2ccccc2)(c2ccccc2)C1=S	> 200 µM	33.1 µM	–
CC1=CCC(=O)[C@]2(C)C(CC(=O)O)[C@]3(C)C4=C(C)C(c5ccoc5)C[C@@H]4O[C@@H]3[C@H](O)[C@@H]12 (stereo partly specified)	> 550 µM	> 550 µM	–
CCC1COS(=O)(=O)CS(=O)(=O)O1 (stereo unspecified)	> 1070 µM	1020 µM	–
Cc1cc(C)c(-c2noc(-c3ccc(Cl)cc3)c2C2=NCCCN2)c(C)c1	> 35.5 µM	24.5 µM	–
CN(C)CCCNC(=O)c1cc(NC(=O)c2cc(NC(=O)c3cc(NC(=O)c4ccc(C(=O)Nc5cn(C)c(C(=O)Nc6cn(C)c(C(=O)Nc7cn(C)c(C(=O)NCCCN(C)C)n7)n6)n5)cc4)cn3C)cn2C)cn1C	> 50.1 µM	> 50.1 µM	–
O=C1c2ccccc2C(=O)c2cc3c(cc21)CS(=O)C3	–	–	inactive
C=C1CC2C[C@H](OS(=O)(=O)c3ccc(C)cc3)C(C1)N2C (stereo partly specified)	> 200 µM	> 200 µM	–
c1cnn(P2(n3cccn3)=NP(n3cccn3)(n3cccn3)=NP(n3cccn3)(n3cccn3)=NP(n3cccn3)(n3cccn3)=NP(n3cccn3)(n3cccn3)=NP(n3cccn3)(n3cccn3)=N2)c1	> 200 µM	> 200 µM	–
Cc1cc(S(=O)(=O)Nc2n[nH]c(Nc3ccc4ccccc4c3)n2)c(S)cc1Cl	> 200 µM	49 µM	–
CCCCCC/C=C/CCCCCCCc1cccc(O)c1C(=O)O	> 102 µM	63.1 µM	–
CC(=O)O[C@H]1CC[C@@]2(C)C(=CC[C@@H]3C2CC[C@@]2(C)C3CC[C@@H]2c2ncc(-c3ccccc3)s2)C1 (stereo partly specified)	> 52.5 µM	> 52.5 µM	–
CC(C)(C)N1C(=O)[N+]2(CCCCC2)N=C1[O-]	> 4.47 µM	> 4.47 µM	–
COc1cc(C2c3cc4c(cc3OC3(N5CCCC5)CCCC23)OCO4)cc(OC)c1OC (stereo unspecified)	> 550 µM	2.82 µM	–
CO/N=C/c1cc(OC)c(OC)c(OC)c1	> 813 µM	> 813 µM	–
Nc1nc2c(C(=O)c3cccs3)nnn2c2cccc(Cl)c12	> 11.5 µM	> 11.5 µM	–
COC(=O)CNC(=O)C(CC(C)C)NC(=O)C(CC(C)C)NC(=O)C(C)NC(=O)OCc1ccccc1 (stereo unspecified) (Cbz-ALLG-OMe; configuration not given here)	–	–	inactive
C=C1C(=O)O[C@@H]2[C@H]1CC[C@H](C)[C@@H]1CCC(=O)[C@@]21C	> 200 µM	3.39 µM	–

Compound	EC50	IC50	outcome
Cn1c(=O)c2nc(-c3ccc(Cl)cc3)oc2n(C)c1=O	> 9.33 µM	> 9.33 µM	–
O=C(O)/C=C\C(=O)c1ccc(Cl)cc1	> 324 µM	58.9 µM	–
CCOC(=O)c1cc(C2CCN(Cc3ccccc3)C2=O)c(C(=O)C(=[N+]=[N-])C(C)=O)[nH]1 (stereo unspecified)	> 200 µM	> 200 µM	–
Cc1cc(-c2ccccc2)nc(Nc2nc3ccccc3o2)n1	> 61.7 µM	> 61.7 µM	–
O=C(c1cccs1)N1CCCN(C(=O)c2cccs2)C1=S	> 200 µM	> 200 µM	–
CNc1nc(SC)nc2c1c(N)nn2C	> 200 µM	> 200 µM	–
O=C(Nc1ccc(Cl)c(Cl)c1)C(=O)C(C(=O)c1ccccc1F)C1OC(=O)c2ccccc21 (stereo unspecified)	> 195 µM	14.1 µM	–
COc1ccc(OC)c(/C=C/[N+](=O)[O-])c1	> 200 µM	2.95 µM	–
C=C1CN2CCc3c([nH]c4ccccc34)C2CC1CC(=O)N(C)C (stereo unspecified)	> 562 µM	468 µM	–
COc1ccc(C2(O)CCCCC2)cc1	> 66.1 µM	> 66.1 µM	–
CCCCc1ccc(C2=C(O)C(=O)C(c3ccc(CCCC)cc3)=C(O)C2=O)cc1	> 43.7 µM	3.31 µM	–
COc1ccc(/C(C#N)=C(/N)SCc2ccccc2Cl)cc1	–	–	inactive
O=[N+]([O-])c1cccc(-c2cn3c(n2)Cc2ccccc2C3)c1	> 200 µM	33.9 µM	–
COc1ccc(-c2cc(-c3ccccc3)c3c(n2)-c2ccccc2NC(=O)C3)cc1	> 200 µM	38 µM	–
CC1=CC2(O)OC3(CC2=C(C)C)C(C)CCC13 (stereo unspecified)	> 200 µM	> 200 µM	–
O=C(O)c1ccccc1/C=N\N(CCO)C1=NCCN1	> 200 µM	> 200 µM	–
COC[C@@H]1[C@H]2OC(C)(C)O[C@H]2C(=O)N1C(=O)c1ccc(OC)cc1	> 200 µM	> 200 µM	–
N#CC1(c2ccccc2)C(c2ccccc2)CC(O)(c2ccccc2)C(C(=O)c2ccccc2)C1c1ccccc1 (stereo unspecified)	> 100 µM	15.1 µM	–
NC(=S)N/N=C1/C(=O)N(c2ccc(Cl)cc2Cl)C(=O)C(=O)C1c1nc2ccccc2s1 (stereo unspecified)	> 72.4 µM	> 72.4 µM	–
O=C(Nc1nc(=S)[nH][nH]1)C(=O)C1C(=O)Nc2ccccc2S1=O (stereo unspecified)	> 372 µM	> 372 µM	–
COC(=O)C(C#N)=C1c2ccccc2Oc2ccccc21	> 129 µM	66.1 µM	–
C[N+](C)(C)CC(=O)N/N=C(/Cc1cc(=O)oc2cc(O)ccc12)C(=O)Nc1ccc(Cl)cc1	> 51.3 µM	> 51.3 µM	–

Compound	EC50	IC50	outcome
CCOP(=O)(OCC)C(F)(F)CC1CCCCC1	> 200 µM	170 µM	–
BrC/C=C/C[P+](c1ccccc1)(c1ccccc1)c1ccccc1	> 5.25 µM	0.603 µM	–
C#CCOC(=O)c1ccccc1O	> 200 µM	> 200 µM	–
CCOC(=O)C1=C(O)C(=O)c2ccsc2C1=O	> 708 µM	120 µM	–
NNC(=O)C1CCC(=O)N1S(=O)(=O)c1ccccc1 (stereo unspecified)	–	–	inactive
N#C/C(=C/N1C(=O)CC(=O)NC1=S)C(N)=O	> 200 µM	> 200 µM	–
COc1cc2c(cc1OC)C1C=NC(C2)c2cc(OC)c(OC)cc21 (stereo unspecified)	–	–	inactive
CCn1c(=O)c(C(=O)O)c(Cl)c2cc3c(cc21)OCO3	–	–	inactive
CCCCCCCCCCCCCC1=C(O)C(=O)C(CC2=C(O)C(=O)C(CCCCCCCCCCCCC)=C(O)C2=O)=C(O)C1=O	> 17 µM	> 17 µM	–
N#C/C(=C\c1ccc(Cl)cc1)c1ccccc1	> 200 µM	32.4 µM	–
O=C(OC1CCCC1)C1(O)CCCCC1	> 200 µM	> 200 µM	–
CCOC(=S)/C=C/c1ccccc1	–	–	inactive
CN(C)Cc1cc(N=Nc2ccccc2)cc(CN(C)C)c1O	> 200 µM	102 µM	–
COC(=O)c1csc(-c2nc(CCNC(=O)OC(C)(C)C)sc2Br)n1	> 79.4 µM	31.6 µM	–
CCN(CC)CCN1CC(=O)N2CCCCN2C(=O)C1	> 200 µM	> 200 µM	–
S=C1CC(c2ccc(Cl)cc2)Sc2ccccc2N1 (stereo unspecified)	> 200 µM	138 µM	–
CCOC(=O)c1c(Br)c(-c2ccc(Br)cc2)c(Br)n1C	> 100 µM	43.7 µM	–
CC1(CO)COC(=O)C(C)(C2(C)NC(C)(CO)COC2=O)N1 (stereo unspecified)	> 794 µM	28.2 µM	–
C[CH2][Sn]([Cl])([CH2]C)[CH2]C	–	–	inactive
CC(C)CC1NC(=O)CCC(NC(=O)C(Cc2ccc(O)cc2)NC(=O)OCc2ccccc2)C(=O)NC(Cc2ccccc2)C(=O)NC(Cc2ccccc2)NC1=O (stereo unspecified)	> 200 µM	> 200 µM	–
CC(C)(C)c1ccc(O)c(Cc2cc(C(C)(C)C)cc(Cc3cc(C(C)(C)C)ccc3O)c2O)c1	> 39.8 µM	12.9 µM	–
CN(c1ccccc1)C1C(=O)N(c2ccccc2)C1/C=C/c1ccccc1 (stereo unspecified)	–	–	inactive

Compound	EC50	IC50	outcome
O=c1cc(NNc2ccc3ccccc3c2)[nH]c(=S)[nH]1	> 200 µM	38.9 µM	–
CN(C)CCC(=O)c1ccccc1	–	–	inactive
Cc1ccc(-c2n[nH]c(=O)[nH]2)cc1	> 200 µM	> 200 µM	–
O=C(Nc1cccc(C(F)(F)F)c1)O/N=C(/Cl)CCl	> 200 µM	33.9 µM	–
COc1cc(C2c3cccc4cccc(c34)C3CCC(=O)N32)cc(OC)c1O (stereo unspecified)	> 50.1 µM	1.32 µM	–
CCn1cnnc1-c1nsc2ccccc12	> 81.3 µM	75.9 µM	–
O=C(O)Cc1ccc(Nc2nc3cc(C(F)(F)F)ccc3nc2C(=O)O)cc1	> 200 µM	> 200 µM	–
CC1S(=O)C(C)S(=O)C(C)S1=O (stereo unspecified)	–	–	inactive
Cc1ccc2c(c1S)C(=O)c1ccccc1C2=O	> 117 µM	29.5 µM	–
O=C1C(c2ccccc2)=C(c2ccccc2)C(c2ccc(Cc3ccc(C4=C(c5ccccc5)C(=O)C(c5ccccc5)=C4c4ccccc4)cc3)cc2)=C1c1ccccc1	> 1.35 µM	> 1.35 µM	–
COC1=C(N)C(=O)c2nc(C)ccc2C1=O	–	–	inactive
CC(=O)Oc1ccc2c(c1)O/C(=C\c1ccc(N(C)C)cc1)C2=O	> 200 µM	28.8 µM	–
COC(=O)C(=O)C1CSC2=C(CS(=O)(=O)c3ccccc32)C1=O (stereo unspecified)	> 200 µM	> 200 µM	–
COC(=O)c1cccc(C)c1C1CN=NC12Cc1c(ccc(C)c1C)C2=O (stereo unspecified)	> 200 µM	> 200 µM	–
CC(=O)c1c(-c2ccc(O)cc2)oc2cc(O)ccc12	> 347 µM	63.1 µM	–
O=c1[nH]c(-c2ccc([N+](=O)[O-])cc2)nc2ccc(Cl)cc12	–	–	inactive
COc1ccc(S(=O)(=O)NNS(C)(=O)=O)cc1OC	> 40.7 µM	> 40.7 µM	–
Clc1ccc(CN2COc3c(cc(Cl)c4cccnc34)C2)cc1Cl	> 200 µM	1.07 µM	–
CC1(C)CC2C(/C1=N/O)C1(C)CCCC2(C)C1O (stereo unspecified)	> 200 µM	> 200 µM	–
NC(N)=NCCCC(Nc1c2ccccc2nc2ccccc12)C(=O)O (stereo unspecified)	–	–	inactive
COc1cc(C(=O)C2CC3(CCC2(O)c2cc(OC)c(OC)c(OC)c2)CC(=O)Nc2ccccc2C3=O)cc(OC)c1OC (stereo unspecified)	> 200 µM	> 200 µM	–
O=C1NN(c2ccccc2)C(=O)C2C3c4ccccc4C(c4ccccc43)C12 (stereo unspecified)	> 200 µM	> 200 µM	–
